# Data reported in patent publication US8722849B2, “Polypeptides” (Novo Nordisk A/S, priority 2011, dated 2014).
# Where two headings read alike, the source gives them in different places. Starred links: 1 amine or outer side, 2 acyl side, 3 side chain; linkers in the order of their positions; H or OH if unused. Positions of bridges follow the written chain, without caps; N, C: chain ends. Residues, ends and D or L forms follow the SMILES beside them. *: point of attachment. C20 diacid = O=C(O)CCCCCCCCCCCCCCCCCCC(=O)*; γGlu = O=C(O)[C@H](CCC(=O)[*:2])N[*:1]
# Key:
# [1] = Assay (III) ThT fibrillation assay for physical stability; assay type: physicochemical; conditions: ThT fibrillation assay
# Outline: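 Freshly prepared formulations, pH-adjusted, with 1 μM ThT; four or eight replicates incubated at 37 °C under 960 rpm orbital shaking. Fluorescence (ex 444/em 485 nm) read every 20 min; […]. Peptide concentration measured by RP-HPLC before and after the run.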
# [2] = molecular target: T1, human amylin receptor (amylin 3(a) receptor: human calcitonin receptor + RAMP-3) (Homo sapiens, UniProt O60896+P30988); assay: Assay (II)a functional CRE-luciferase assay, human amylin receptor; assay type: cell-based; conditions: Table 11
# T1 construct: expressed in transfected cells; host or cells: BHK570
# T1 sequence (P30988 25-474): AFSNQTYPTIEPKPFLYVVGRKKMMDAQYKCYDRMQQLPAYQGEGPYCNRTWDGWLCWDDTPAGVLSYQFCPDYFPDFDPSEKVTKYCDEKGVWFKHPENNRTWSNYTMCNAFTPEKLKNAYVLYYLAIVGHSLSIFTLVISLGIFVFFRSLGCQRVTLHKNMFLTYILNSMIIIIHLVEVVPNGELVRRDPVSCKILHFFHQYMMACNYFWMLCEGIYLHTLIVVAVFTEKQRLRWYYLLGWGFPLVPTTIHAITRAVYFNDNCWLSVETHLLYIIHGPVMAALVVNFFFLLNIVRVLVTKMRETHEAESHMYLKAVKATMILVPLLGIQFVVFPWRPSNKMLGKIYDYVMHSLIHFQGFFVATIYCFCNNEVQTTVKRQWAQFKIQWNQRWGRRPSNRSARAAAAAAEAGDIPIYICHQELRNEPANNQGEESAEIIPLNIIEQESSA
# T1 sequence (O60896 24-148 partner): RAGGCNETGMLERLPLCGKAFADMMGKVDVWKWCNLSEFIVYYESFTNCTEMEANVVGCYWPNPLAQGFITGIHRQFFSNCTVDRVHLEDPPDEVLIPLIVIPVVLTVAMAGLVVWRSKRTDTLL
# [3] = Assay (IV) determination of solubility; assay type: physicochemical
# Outline: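 Polypeptide in water (~500 nmol/ml stock) was mixed 1:1 with 100 mM buffers from pH 3.0 to 8.0 (glycylglycine pH 3.0–5.0; bistrispropane pH 6.0–8.0). After 18 hours at room temperature, samples were centrifuged and the polypeptide remaining in solution was quantified by HPLC.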
# [4] = molecular target: T2, human calcitonin receptor (Homo sapiens, UniProt P30988); assay: Assay (II)a functional CRE-luciferase assay, human calcitonin receptor; assay type: cell-based; conditions: Table 11; read-out: CTa receptor human EC50
# T2 construct: expressed in transfected cells; host or cells: BHK570
# T2 sequence (P30988 25-474): T1 sequence (P30988 25-474)
# [5] = bistrispropane buffer, pH 6, pH 6.0, read-out: Solubility pH 6.0
# [6] = bistrispropane buffer, pH 6.5, pH 6.5, read-out: Solubility pH 6.5
# [7] = bistrispropane buffer, pH 7, pH 7.0, read-out: Solubility pH 7.0
# [8] = bistrispropane buffer, pH 7.5, pH 7.5, read-out: Solubility pH 7.5
# [9] = glycylglycine buffer, pH 3, pH 3.0, read-out: Solubility pH 3.0
# [10] = glycylglycine buffer, pH 4, pH 4.0, read-out: Solubility pH 4.0
# [11] = glycylglycine buffer, pH 5, pH 5.0, read-out: Solubility pH 5.0
# [12] = pH 8.0, read-out: Solubility pH 8.0
Structure (SMILES),ThT pH 4.0 lag time (h) [1] [h],EC50 [2] [nM],"solubility at 18 h [3, 5] [µM]","solubility at 18 h [3, 6] [µM]","solubility at 18 h [3, 7] [µM]","solubility at 18 h [3, 8] [µM]","solubility at 18 h [3, 9] [µM]","solubility at 18 h [3, 10] [µM]","solubility at 18 h [3, 11] [µM]","solubility at 18 h [3, 12] [µM]",EC50 [4] [nM]
CC[C@H](C)[C@H](NC(=O)[C@@H]1CCCN1C(=O)CNC(=O)[C@H](Cc1ccccc1)NC(=O)[C@H](CC(N)=O)NC(=O)[C@H](CC(N)=O)NC(=O)[C@H](CO)NC(=O)[C@H](CO)NC(=O)[C@H](Cc1c[nH]cn1)NC(=O)[C@@H](NC(=O)[C@H](CC(C)C)NC(=O)[C@H](Cc1ccccc1)NC(=O)[C@H](CC(N)=O)NC(=O)[C@H](C)NC(=O)[C@H](CC(C)C)NC(=O)[C@H](CCCNC(=N)N)NC(=O)[C@H](CCC(N)=O)NC(=O)[C@@H](NC(=O)[C@H](C)NC(=O)[C@@H]1CSSC[C@H](NC(=O)[C@H](CCCNC(=N)N)NC(=O)CC[C@H](NC(=O)CCCCCCCCCCCCCCCCCCC(=O)O)C(=O)O)C(=O)N[C@@H](CC(N)=O)C(=O)N[C@@H]([C@@H](C)O)C(=O)N[C@@H](C)C(=O)N[C@@H]([C@@H](C)O)C(=O)N1)[C@@H](C)O)C(C)C)C(=O)N[C@@H](CC(C)C)C(=O)N1CCC[C@H]1C(=O)N1CCC[C@H]1C(=O)N[C@H](C(=O)N[C@@H](CC(N)=O)C(=O)N[C@H](C(=O)NCC(=O)N[C@@H](CO)C(=O)N[C@@H](Cc1c[nH]cn1)C(=O)N[C@H](C(=O)N[C@@H](Cc1ccc(O)cc1)C(N)=O)[C@@H](C)O)C(C)C)[C@@H](C)O [Example 98] ({C20 diacid-γGlu}-RCNTATCATQRLANFLVHSSNNFGPILPPTNVGSHTY-NH2; disulfide 2-7 (inferred); C-terminus assumed),2.6,0.0745,85,1,1,1,> 200,> 200,> 200,1,0.193
"CC[C@H](C)[C@H](NC(=O)[C@@H]1CCCN1C(=O)CNC(=O)[C@H](Cc1ccccc1)NC(=O)[C@H](CC(N)=O)NC(=O)[C@H](CC(N)=O)NC(=O)[C@H](CO)NC(=O)[C@H](CO)NC(=O)[C@H](Cc1c[nH]cn1)NC(=O)[C@@H](NC(=O)[C@H](CC(C)C)NC(=O)[C@H](Cc1ccccc1)NC(=O)[C@H](CC(N)=O)NC(=O)[C@H](C)NC(=O)[C@H](CC(C)C)NC(=O)[C@H](CCCNC(=N)N)NC(=O)[C@H](CCC(N)=O)NC(=O)[C@@H](NC(=O)[C@H](C)NC(=O)[C@@H]1CSSC[C@H](NC(=O)[C@H](CCCNC(=N)N)NC(=O)CNC(=O)CC[C@H](NC(=O)CCCCCCCCCCCCCCCCCCC(=O)O)C(=O)O)C(=O)N[C@@H](CC(N)=O)C(=O)N[C@@H]([C@@H](C)O)C(=O)N[C@@H](C)C(=O)N[C@@H]([C@@H](C)O)C(=O)N1)[C@@H](C)O)C(C)C)C(=O)N[C@@H](CC(C)C)C(=O)N1CCC[C@H]1C(=O)N1CCC[C@H]1C(=O)N[C@H](C(=O)N[C@@H](CC(N)=O)C(=O)N[C@H](C(=O)NCC(=O)N[C@@H](CO)C(=O)N[C@@H](Cc1c[nH]cn1)C(=O)N[C@H](C(=O)N[C@@H](Cc1ccc(O)cc1)C(N)=O)[C@@H](C)O)C(C)C)[C@@H](C)O [Example 99, N-alpha-[(S)-4-Carboxy-4-(19-carboxynonadecanoylamino)butyryl]-Gly-[Arg1,His35]-pramlintide] ({C20 diacid-γGlu}-GRCNTATCATQRLANFLVHSSNNFGPILPPTNVGSHTY-NH2; disulfide 3-8 (inferred); C-terminus assumed)",1.7,0.045,2,1,1,1,> 200,> 200,> 200,1,0.0875
